Measured values from article PMC3227451, “Structure-based development of novel sirtuin inhibitors” (Aging (Albany NY), 2011).

What was measured:
HEK cells = test: Cytotoxicity testing on HEK cells
Sirt2 [1] = target: T1, Sirt2 (Homo sapiens, UniProt Q8IXJ6); test: Fluor-de-Lys peptide deacetylation assay, Sirt2; format: biochemical
T1 sequence (Q8IXJ6 34-356): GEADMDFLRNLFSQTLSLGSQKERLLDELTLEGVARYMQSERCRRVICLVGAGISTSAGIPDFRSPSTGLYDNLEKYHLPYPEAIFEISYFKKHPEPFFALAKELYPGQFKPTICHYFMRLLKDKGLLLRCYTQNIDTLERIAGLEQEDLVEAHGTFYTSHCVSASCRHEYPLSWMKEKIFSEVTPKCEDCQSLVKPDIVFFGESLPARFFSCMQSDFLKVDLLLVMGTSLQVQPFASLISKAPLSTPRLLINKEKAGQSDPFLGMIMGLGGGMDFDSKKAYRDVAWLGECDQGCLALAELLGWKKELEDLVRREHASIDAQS
Summary of the method: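 Full-length human Sirt2 (E. coli-expressed, purified, His-tag removed) incubated 30 min at 37 °C with 0.1 mM FdL-2 peptide (QPK(acetyl-K)), 0.5 mM NAD+ and compound at 100 μM final in kit buffer. Values corrected with compound-only (no Sirtuin) controls; screen in duplicate, dose-response in triplicate.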

Sirt5 [2] = target: T2, Sirt5 (Homo sapiens, UniProt Q9NXA8); test: Fluor-de-Lys peptide deacetylation assay, Sirt5; format: biochemical; details: 100 μM compound; 0.1 mM FdL-1 peptide, 0.5 mM NAD+
T2 construct: Sirt5 residues 34-302; His-tag with linker comprising a TEV protease cleavage site (N); made in house
T2 sequence (Q9NXA8 34-302): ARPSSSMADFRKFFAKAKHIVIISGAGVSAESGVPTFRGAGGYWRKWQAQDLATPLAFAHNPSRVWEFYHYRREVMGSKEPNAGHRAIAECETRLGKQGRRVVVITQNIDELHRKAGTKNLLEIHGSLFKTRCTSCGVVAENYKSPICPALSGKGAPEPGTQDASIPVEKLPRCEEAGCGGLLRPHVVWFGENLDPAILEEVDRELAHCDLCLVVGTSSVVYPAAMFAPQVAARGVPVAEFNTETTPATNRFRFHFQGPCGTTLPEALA
Summary of the method: (§1)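 E. coli-expressed human Sirtuins with 0.5 mM NAD+ and 0.1 mM Fluor-de-Lys peptide: FdL-2 (QPK(acetyl-K)) for Sirt3, FdL-1 (RHK(acetyl-K)) for Sirt5. Compounds at 100 μM final; 30 min at 37 °C, then trypsin developer for 45 min at room temperature.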

Sirt3 = target: T3, Sirt3 (Homo sapiens, UniProt Q9NTG7); test: Fluor-de-Lys peptide deacetylation assay, Sirt3; format: biochemical; details: 100 μM compound; 0.1 mM FdL-2 peptide, 0.5 mM NAD+
T3 construct: Sirt3 residues 114-399; His-tag with linker comprising a TEV protease cleavage site (N); made in house; host or cells: E. coli
T3 sequence (Q9NTG7 114-399): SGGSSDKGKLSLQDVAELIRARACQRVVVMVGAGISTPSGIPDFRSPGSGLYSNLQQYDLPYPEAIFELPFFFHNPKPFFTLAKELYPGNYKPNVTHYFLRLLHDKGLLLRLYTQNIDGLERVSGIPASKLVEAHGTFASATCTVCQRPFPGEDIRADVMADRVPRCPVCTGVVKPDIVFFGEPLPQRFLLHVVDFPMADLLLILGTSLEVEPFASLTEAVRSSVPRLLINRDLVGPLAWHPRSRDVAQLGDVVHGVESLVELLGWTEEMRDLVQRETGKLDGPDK
Summary of the method: as §1

Sirt1 [3] = target: T4, Sirt1 (Homo sapiens, UniProt Q96EB6); test: in vitro activity of Sirt1; format: biochemical; details: concentration of 100 μM
T4 sequence (Q96EB6 1-747): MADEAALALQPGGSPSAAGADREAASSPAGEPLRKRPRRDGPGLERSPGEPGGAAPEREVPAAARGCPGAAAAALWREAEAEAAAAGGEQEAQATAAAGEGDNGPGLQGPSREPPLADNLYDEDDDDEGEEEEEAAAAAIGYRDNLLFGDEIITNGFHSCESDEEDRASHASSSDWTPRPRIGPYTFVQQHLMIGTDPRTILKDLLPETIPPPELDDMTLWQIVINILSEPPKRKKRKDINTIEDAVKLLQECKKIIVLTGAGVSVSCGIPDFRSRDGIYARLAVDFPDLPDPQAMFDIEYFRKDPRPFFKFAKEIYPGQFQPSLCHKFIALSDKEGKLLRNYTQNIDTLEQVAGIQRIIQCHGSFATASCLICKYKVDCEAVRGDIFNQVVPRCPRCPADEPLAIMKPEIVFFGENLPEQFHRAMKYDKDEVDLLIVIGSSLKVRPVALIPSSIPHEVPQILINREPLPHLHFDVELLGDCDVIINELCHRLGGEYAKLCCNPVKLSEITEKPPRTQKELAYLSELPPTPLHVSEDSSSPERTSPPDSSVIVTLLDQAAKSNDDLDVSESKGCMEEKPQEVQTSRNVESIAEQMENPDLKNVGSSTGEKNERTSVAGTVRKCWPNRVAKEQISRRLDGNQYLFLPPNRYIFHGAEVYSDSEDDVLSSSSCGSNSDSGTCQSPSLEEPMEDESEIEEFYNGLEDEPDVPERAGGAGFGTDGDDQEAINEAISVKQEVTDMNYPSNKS

Sirt6 = target: T5, Sirt6 (Homo sapiens, UniProt Q8N6T7); test: Fluor-de-Lys peptide deacetylation assay, Sirt6; format: biochemical; details: 100 μM compound; 0.1 mM FdL-1 peptide, 0.5 mM NAD+
T5 construct: Sirt6 residues 13-308; His-tag with linker comprising a TEV protease cleavage site (N, cleaved yes); made in house; host or cells: E. coli Rosetta2
T5 sequence (Q8N6T7 13-308): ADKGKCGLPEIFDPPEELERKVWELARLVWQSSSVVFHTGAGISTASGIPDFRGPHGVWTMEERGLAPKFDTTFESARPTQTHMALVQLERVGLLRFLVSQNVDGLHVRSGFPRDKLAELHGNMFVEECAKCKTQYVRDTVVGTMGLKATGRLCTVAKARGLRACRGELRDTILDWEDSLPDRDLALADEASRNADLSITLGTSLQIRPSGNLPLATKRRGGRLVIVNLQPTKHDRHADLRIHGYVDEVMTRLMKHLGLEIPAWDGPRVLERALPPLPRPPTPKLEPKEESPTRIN
Summary of the method: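 Fluor-de-Lys kit run with FdL-1 peptide RHK(acetyl-K), 0.1 mM, plus 0.5 mM NAD+. Compounds at 100 μM final, 30 min at 37 °C, then trypsin developer for 45 min at room temperature.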

Sirt5 [4] = details: cited from earlier work
Sirt1 [5] = details: cited from earlier work
Sirt2 [6] = details: cited from earlier work
yeast Sir2 = tested on: yeast Sir2; design: method as in PMID 14534292; details: cited from earlier work

C[C@]12CC[C@@H]3c4ccc(O)cc4CC[C@H]3[C@@H]1CCC2OC(=O)CCc1ccccc1 (some centres unmarked) [CSC8, 3-hydroxyestra-1,3,5(10)-trien-17-yl 3-phenylpropanoate]
cytotoxicity (HEK cells): very high cytotoxicity | Effect on the activity of Sirt2 (Sirt2 [1]; 100 μM compound, 0.1 mM FdL-2 peptide, 0.5 mM NAD+): inhibition (significant inhibitory effects (>25% loss of activity)) | inhibition at 100 µM (Sirt2 [1]; 100 μM compound, read-out: Sirt2 inhibition in the screen): ~80% | IC50 (Sirt2 [1]; dose-response, substrate peptide concentration 100 μM, read-out: IC50 against Sirt2): 4.8 ± 0.5 µM | Effect on the activity of Sirt5 (Sirt5 [2]): --- (no such effect) | Effect on the activity of Sirt3 (Sirt3): --- (no such effect) | effect on the in vitro activity of Sirt1 (Sirt1 [3]): only a weak inhibitory effect | Effect on the activity of Sirt6 (Sirt6): --- (no such effect)

NC(=O)C1CCCc2c1[nH]c1ccc(Cl)cc21 (centres unmarked) [EX-527]
effect against Sirt5 (Sirt5 [4]): no effect | IC50 (Sirt1 [5]): […] | potency against Sirt2 relative to Sirt1 (Sirt2 [6]): about two orders of magnitude lower potency

CC(NC(=O)c1ccccc1/N=C/c1c(O)ccc2ccccc12)c1ccccc1 (centres unmarked) [sirtinol]
weaker potency against Sirt1 than against Sirt2 (Sirt1 [5]): ~ 3 fold | IC50 (Sirt2 [6]; in vitro assay, read-out: IC50 against Sirt2): […]

O=C1CCc2c(ccc3ccccc23)O1 [splitomicin]
inhibition of yeast Sir2 (potency range) (yeast Sir2): micromolar inhibitors
